Laboratory results as given in patent publication US20250230193A1, “CYCLIC COMPOUND HAVING SELECTIVE KRAS INHIBITORY EFFECT ON HRAS AND NRAS” (CHUGAI SEIYAKU KABUSHIKI KAISHA, priority 2022, published 2025).

How the values were obtained:
[1] = test system: human lung cancer strain NCI-H441; experiment: cells; conditions: NCI-H441, 96 h, read-out: NCI-H441 IC50 (nM)
[2] = target: GDP-bound HRAS wild-type protein (Homo sapiens, UniProt P01112); experiment: Binding to HRAS by surface plasmon resonance (SPR), Single Cycle Kinetics; conditions: SPR; KD ratio class
[3] = target: GDP-bound NRAS wild-type protein (Homo sapiens, UniProt P01111); experiment: Binding to NRAS by surface plasmon resonance (SPR), Single Cycle Kinetics; conditions: SPR; KD ratio class
Chain of GDP-bound NRAS wild-type protein (P01111 whole entry): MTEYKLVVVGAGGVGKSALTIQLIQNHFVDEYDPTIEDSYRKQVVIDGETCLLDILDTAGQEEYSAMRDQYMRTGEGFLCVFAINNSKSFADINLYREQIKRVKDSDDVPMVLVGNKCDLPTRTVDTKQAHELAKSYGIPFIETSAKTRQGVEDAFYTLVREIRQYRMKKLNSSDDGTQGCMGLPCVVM

Chain of GDP-bound HRAS wild-type protein (P01112 whole entry): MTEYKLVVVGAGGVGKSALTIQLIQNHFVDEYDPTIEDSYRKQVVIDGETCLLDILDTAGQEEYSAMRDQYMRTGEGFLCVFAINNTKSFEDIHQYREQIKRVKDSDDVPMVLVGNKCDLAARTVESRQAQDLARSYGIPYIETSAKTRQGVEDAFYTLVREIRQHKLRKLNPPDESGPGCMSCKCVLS

Row | SMILES | IC50 [1] [nM] | HRAS/KRAS (ratio of KD value for GDP-bound HRAS wild-type protein to KD value for KRAS) [2] | NRAS/KRAS (ratio of KD value for GDP-bound NRAS wild-type protein to KD value for KRAS) [3]
1 | CCO[C@@H]1C[C@H]2C(=O)NC3(CCC3)C(=O)N(C)[C@@H](C(CC)CC)C(=O)N(C)[C@H](C(=O)N(C)C)CC(=O)N(C)[C@@H](CC3CC3)C(=O)N[C@@H]([C@@H](C)CC)C(=O)N(C)CC(=O)N(C)[C@H]3C/C=C\CCN(C3=O)[C@@H](Cc3ccc(C(F)(F)F)cc3)C(=O)N(C)CC(=O)N[C@@H](CCc3ccc4sccc4c3)C(=O)N2C1 [PP1227] | 128 | A (a compound having 10 or more and less than 20 is denoted as A) | A (a compound having 10 or more and less than 20 is denoted as A)
2 | CCO[C@@H]1C[C@H]2C(=O)NC3(CCC3)C(=O)N(C)[C@@H](C(CC)CC)C(=O)N(C)[C@H](C(=O)N(C)C)CC(=O)N(C)[C@@H](COC)C(=O)N[C@@H]([C@@H](C)CC)C(=O)N(C)CC(=O)N(C)[C@H]3C/C=C\CCN(C3=O)[C@@H](Cc3ccc(C(F)(F)F)cc3)C(=O)N(C)CC(=O)N[C@@H](CCc3ccc4sccc4c3)C(=O)N2C1 [PP1229] | 144 | A (a compound having 10 or more and less than 20 is denoted as A) | A (a compound having 10 or more and less than 20 is denoted as A)
3 | CCO[C@@H]1C[C@H]2C(=O)NC3(CCC3)C(=O)N(C)[C@@H](C(CC)CC)C(=O)N(C)[C@H](C(=O)N(C)C)CC(=O)N(C)[C@@H](CC)C(=O)N[C@@H]([C@@H](C)CC)C(=O)N(C)CC(=O)N(C)[C@H]3C/C=C\CCN(C3=O)[C@@H](Cc3ccc(C(F)(F)F)cc3)C(=O)N(C)CC(=O)N[C@@H](CCc3cc(F)c(Cl)c(F)c3)C(=O)N2C1 [PP1230] | 110 | A (a compound having 10 or more and less than 20 is denoted as A) | A (a compound having 10 or more and less than 20 is denoted as A)
4 | CCC[C@H]1C(=O)N[C@@H]([C@@H](C)CC)C(=O)N(C)CC(=O)N(C)[C@H]2C/C=C\CCN(C2=O)[C@@H](Cc2ccc(C(F)(F)F)cc2)C(=O)N(C)CC(=O)N[C@@H](CCc2cc(F)c(Cl)c(F)c2)C(=O)N2C[C@H](OCC)C[C@H]2C(=O)NC2(CCC2)C(=O)N(C)[C@@H](C(CC)CC)C(=O)N(C)[C@H](C(=O)N(C)C)CC(=O)N1C [PP1231] | 23.1 | A (a compound having 10 or more and less than 20 is denoted as A) | AA (a compound having 20 or more is denoted as AA)
5 | CCO[C@@H]1C[C@H]2C(=O)NC3(CCC3)C(=O)N(C)[C@@H](C(CC)CC)C(=O)N(C)[C@H](C(=O)N(C)C)CC(=O)N(C)[C@@H](CC(C)C)C(=O)N[C@@H]([C@@H](C)CC)C(=O)N(C)CC(=O)N(C)[C@H]3C/C=C\CCN(C3=O)[C@@H](Cc3ccc(C(F)(F)F)cc3)C(=O)N(C)CC(=O)N[C@@H](CCc3cc(F)c(Cl)c(F)c3)C(=O)N2C1 [PP1232] | 59.7 | A (a compound having 10 or more and less than 20 is denoted as A) | A (a compound having 10 or more and less than 20 is denoted as A)
6 | CCO[C@@H]1C[C@H]2C(=O)NC3(CCC3)C(=O)N(C)[C@@H](C(CC)CC)C(=O)N(C)[C@H](C(=O)N(C)C)CC(=O)N(C)[C@@H](CC3CC3)C(=O)N[C@@H]([C@@H](C)CC)C(=O)N(C)CC(=O)N(C)[C@H]3C/C=C\CCN(C3=O)[C@@H](Cc3ccc(C(F)(F)F)cc3)C(=O)N(C)CC(=O)N[C@@H](CCc3cc(F)c(Cl)c(F)c3)C(=O)N2C1 [PP1233] | 34.7 | A (a compound having 10 or more and less than 20 is denoted as A) | AA (a compound having 20 or more is denoted as AA)
7 | CCO[C@@H]1C[C@H]2C(=O)NC3(CCC3)C(=O)N(C)[C@@H](C3CCCC3)C(=O)N(C)[C@@H](C(=O)N(C)C)CC(=O)N(C)[C@@H](CC)C(=O)N[C@@H]([C@@H](C)CC)C(=O)N(C)CC(=O)N(C)[C@H]3C/C=C\CCN(C3=O)[C@@H](Cc3ccc(C(F)(F)F)cc3)C(=O)N(C)CC(=O)N[C@@H](CCc3cc(F)c(C(F)(F)F)c(F)c3)C(=O)N2C1 [PP1234] | 398 | C (A compound having a KD ratio of 0.1 or more and less than 3 is denoted as C) | B (a compound having 3 or more and less than 10 is denoted as B)

Second part, led by results:

Row | IC50 [1] [nM] | SMILES | HRAS/KRAS (ratio of KD value for GDP-bound HRAS wild-type protein to KD value for KRAS) [2] | NRAS/KRAS (ratio of KD value for GDP-bound NRAS wild-type protein to KD value for KRAS) [3]
8 | 386 | CCO[C@@H]1C[C@H]2C(=O)NC3(CCC3)C(=O)N(C)[C@@H](C3CCCC3)C(=O)N(C)[C@@H](C(=O)N(C)C)CC(=O)N(C)[C@@H](CC3CCCC3)C(=O)N[C@@H]([C@@H](C)CC)C(=O)N(C)CC(=O)N(C)[C@H]3C/C=C\CCN(C3=O)[C@@H](Cc3ccc(C(F)(F)F)cc3)C(=O)N(C)CC(=O)N[C@@H](CCc3cc(F)c(C(F)(F)F)c(F)c3)C(=O)N2C1 [PP1235] | C (A compound having a KD ratio of 0.1 or more and less than 3 is denoted as C) | B (a compound having 3 or more and less than 10 is denoted as B)
9 | 55.4 | CCO[C@@H]1C[C@H]2C(=O)NC3(CCC3)C(=O)N(C)[C@@H](C3CCCC3)C(=O)N(C)[C@H](C(=O)N(C)C)CC(=O)N(C)[C@@H](CC)C(=O)N[C@@H]([C@@H](C)CC)C(=O)N(C)CC(=O)N(C)[C@H]3C/C=C\CCN(C3=O)[C@@H](Cc3ccc(C(F)(F)F)cc3)C(=O)N(C)CC(=O)N[C@@H](CCc3ccc(Cl)c(Cl)c3)C(=O)N2C1 [PP1249] | A (a compound having 10 or more and less than 20 is denoted as A) | A (a compound having 10 or more and less than 20 is denoted as A)
10 | 18.7 | CCC[C@H]1C(=O)N[C@@H]([C@@H](C)CC)C(=O)N(C)CC(=O)N(C)[C@H]2C/C=C\CCN(C2=O)[C@@H](Cc2ccc(C(F)(F)F)cc2)C(=O)N(C)CC(=O)N[C@@H](CCc2ccc(Cl)c(Cl)c2)C(=O)N2C[C@H](OCC)C[C@H]2C(=O)NC2(CCC2)C(=O)N(C)[C@@H](C2CCCC2)C(=O)N(C)[C@H](C(=O)N(C)C)CC(=O)N1C [PP1250] | A (a compound having 10 or more and less than 20 is denoted as A) | AA (a compound having 20 or more is denoted as AA)
11 | 10.2 | CCO[C@@H]1C[C@H]2C(=O)NC3(CCC3)C(=O)N(C)[C@@H](C3CCCC3)C(=O)N(C)[C@H](C(=O)N(C)C)CC(=O)N(C)[C@@H](CC(C)C)C(=O)N[C@@H]([C@@H](C)CC)C(=O)N(C)CC(=O)N(C)[C@H]3C/C=C\CCN(C3=O)[C@@H](Cc3ccc(C(F)(F)F)cc3)C(=O)N(C)CC(=O)N[C@@H](CCc3ccc(Cl)c(Cl)c3)C(=O)N2C1 [PP1251] | A (a compound having 10 or more and less than 20 is denoted as A) | AA (a compound having 20 or more is denoted as AA)
12 | 51.2 | CCCCCC[C@H]1C(=O)N[C@@H]([C@@H](C)CC)C(=O)N(C)CC(=O)N(C)[C@H]2C/C=C\CCN(C2=O)[C@@H](Cc2ccc(C(F)(F)F)cc2)C(=O)N(C)CC(=O)N[C@@H](CCc2ccc(Cl)c(Cl)c2)C(=O)N2C[C@H](OCC)C[C@H]2C(=O)NC2(CCC2)C(=O)N(C)[C@@H](C2CCCC2)C(=O)N(C)[C@H](C(=O)N(C)C)CC(=O)N1C [PP1252] | A (a compound having 10 or more and less than 20 is denoted as A) | AA (a compound having 20 or more is denoted as AA)
13 | 28.3 | CCO[C@@H]1C[C@H]2C(=O)NC3(CCC3)C(=O)N(C)[C@@H](C3CCCC3)C(=O)N(C)[C@H](C(=O)N(C)C)CC(=O)N(C)[C@@H](CC3CCCC3)C(=O)N[C@@H]([C@@H](C)CC)C(=O)N(C)CC(=O)N(C)[C@H]3C/C=C\CCN(C3=O)[C@@H](Cc3ccc(C(F)(F)F)cc3)C(=O)N(C)CC(=O)N[C@@H](CCc3ccc(Cl)c(Cl)c3)C(=O)N2C1 [PP1254] | A (a compound having 10 or more and less than 20 is denoted as A) | AA (a compound having 20 or more is denoted as AA)
14 | 156 | CCO[C@@H]1C[C@H]2C(=O)NC3(CCC3)C(=O)N(C)[C@@H](C3CCCC3)C(=O)N(C)[C@H](C(=O)N(C)C)CC(=O)N(C)[C@@H](CC)C(=O)N[C@@H]([C@@H](C)CC)C(=O)N(C)CC(=O)N(C)[C@H]3C/C=C\CCN(C3=O)[C@@H](Cc3ccc(C(F)(F)F)cc3)C(=O)N(C)CC(=O)N[C@@H](CCc3ccc4sccc4c3)C(=O)N2C1 [PP1255] | A (a compound having 10 or more and less than 20 is denoted as A) | A (a compound having 10 or more and less than 20 is denoted as A)
15 | 69 | CCC[C@H]1C(=O)N[C@@H]([C@@H](C)CC)C(=O)N(C)CC(=O)N(C)[C@H]2C/C=C\CCN(C2=O)[C@@H](Cc2ccc(C(F)(F)F)cc2)C(=O)N(C)CC(=O)N[C@@H](CCc2ccc3sccc3c2)C(=O)N2C[C@H](OCC)C[C@H]2C(=O)NC2(CCC2)C(=O)N(C)[C@@H](C2CCCC2)C(=O)N(C)[C@H](C(=O)N(C)C)CC(=O)N1C [PP1256] | A (a compound having 10 or more and less than 20 is denoted as A) | A (a compound having 10 or more and less than 20 is denoted as A)
